According to US10709688B2, “Agent for treating synucleinopathy” (TOHOKU UNIVERSITY, priority 2016, dated 2020):

Columns and labels:
GST-FABP4 = GST-FABP4 (Mus musculus (Mouse), UniProt P04117); assay: Test Example 13: affinity of FABP ligand using ANS, GST-FABP4; settings: read-out: Kd value of FABP against the ligands, GST-FABP4; ANS fluorescence; average of three measurements±SE
Procedure: After GST-FABP3 and GST-FABP4 were respectively expressed in the Escherichia coli [BL21 (DE3) strain], affinity purification was performed using a glutathione column.
Purification of the GST binding protein was performed using a GST purification kit (Takara Bio USA). After the Escherichia coli was recovered by centrifuging, the accessory extraction buffer and aluminum oxide powder were added and the mixture was ground in the mortar. The centrifuged supernatant was added to the accessory glutathione column and left stationary on ice for 30 min. Then, the supernatant in the column was thrown away, and the remaining matter was washed with the extraction buffer, and subsequently subjected to elution using an elution buffer including glutathione. The protein concentration of the elution product was calculated from the absorbance at 280 nm, and used as an ANS assay.
The fluorescence intensity at the respective ligand concentrations was converted to a relative value (%) against the ANS fluorescence intensity under the absence of ligand, then the dissociation constant Kd(nM) was calculated by a nonrecurring analysis using the following equation.
F: Relative fluorescence intensity at a certain condition (%);
Ka: Reciprocal of dissociation constant Kd (nM^−1);
Fmax*: Relative fluorescence intensity when FABP is fully occupied by ligands.

[1] = tested on: TH and α-synuclein double positive cells of substantia nigra, MPTP model mice; assay: Test Example 12: suppression of α-synuclein aggregation in MPTP Parkinson's disease model mice; type: in vivo, mouse; settings: p.o. once every day (Example 1: 0.1, 0.3 or 1.0 mg/kg; others 1.0 mg/kg), four weeks after MPTP, FIG. 12
Procedure: MPTP (25 mg/kg, i.p.) was administered once every day for 5 consecutive days to a 10 week old male C57BL6 N mice to prepare a Parkinson's disease model mice. […] Four weeks after MPTP administration, at which time a loss in the dopamine neuron and formation of α-synuclein multimers are observed, a mouse was fixed under perfusion to prepare a brain slice 50 μm thick that includes a substantia nigra region. The brain slice was reacted with an anti-TH antibody (mouse monoclonal antibody 22941 produced by Immunostar, 1:1000) and an anti-α-synuclein antibody (rabbit polyclonal antibody SC-7011-R produced by Santa Cruz, 1:200) and detected by a fluorescence-labeled, secondary antibody (Alexa 488 anti-rabbit IgG (produced by Jackson ImmunoResearch, 1:500)) to evaluate the number of positive cells.

[2] = tested on: MPTP Parkinson's disease model C57BL6 N mice; assay: Test Example 9: motor function in MPTP Parkinson's disease model mice; type: in vivo, mouse; settings: p.o. once every day (Example 1: 0.1, 0.5 or 1.0 mg/kg; others 1.0 mg/kg), three weeks after MPTP, FIG. 9
Procedure: MPTP (25 mg/kg, i.p.) was administered once every day for 5 consecutive days to a 10 week old male C57BL6 N mice to prepare a Parkinson's disease model mice. […] Three weeks after administration of MPTP, at which time motor dysfunction was observed, the motor function was evaluated by a rotarod test and beam walking test.

[3] = tested on: MPTP Parkinson's disease model mice; assay: Test Example 8: motor function in MPTP Parkinson's disease model animal; type: in vivo, mouse; settings: 1.0 mg/kg p.o. daily 2 weeks, three weeks after MPTP, FIG. 8
Procedure: From 24 hours after the final administration of MPTP, the solvent or FABP3 ligand (compound of Example 3) (1.0 mg/kg, p.o., each group n=7) was administered once every day for 2 weeks. Three weeks after administration of MPTP, at which time motor dysfunction was observed, the motor function was evaluated by a rotarod test and beam walking test. […] It was confirmed in both tests that the ligand administered group was fully recovered from the motor dysfunction that developed after MPTP administration.

GST-FABP3 = GST-FABP3 (Mus musculus (Mouse), UniProt P11404); assay: Test Example 13: affinity of FABP ligand using ANS, GST-FABP3; type: binding; settings: ANS fluorescence; average of three measurements±SE; read-out: Kd value of FABP against the ligands, GST-FABP3
Chain of GST-FABP3 (P11404 whole entry): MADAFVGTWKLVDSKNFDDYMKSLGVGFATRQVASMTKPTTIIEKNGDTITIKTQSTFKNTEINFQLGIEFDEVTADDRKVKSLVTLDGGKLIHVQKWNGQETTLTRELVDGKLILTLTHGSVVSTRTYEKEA
Procedure: Pt: FABP protein concentration (=400 nM);

[4] = tested on: dopamine neurons (TH positive cells) of substantia nigra, MPTP model mice; assay: Test Example 11: dopamine neuroprotection in MPTP Parkinson's disease model mice; type: in vivo, mouse; settings: p.o. once every day (Example 1: 0.1, 0.3 or 1.0 mg/kg; others 1.0 mg/kg), four weeks after MPTP, FIG. 11
Procedure: MPTP (25 mg/kg, i.p.) was administered once every day for 5 consecutive days to a 10 week old male C57BL6 N mice to prepare a Parkinson's disease model mice. […] Four weeks after MPTP administration, at which time a loss in the dopamine neuron and formation of α-synuclein multimers are observed, the mouse was fixed under perfusion to prepare a brain slice 50 μm thick that includes a substantia nigra region.

FABP4 = FABP4 (Homo sapiens (Human), UniProt P15090); assay: Evaluation of FABP4 ligand activity, fluorescent displacement assay using 1,8-ANS (Cayman assay kit); type: binding; settings: 1,8-ANS displacement; average of two measurements
Chain of FABP4 (P15090 whole entry): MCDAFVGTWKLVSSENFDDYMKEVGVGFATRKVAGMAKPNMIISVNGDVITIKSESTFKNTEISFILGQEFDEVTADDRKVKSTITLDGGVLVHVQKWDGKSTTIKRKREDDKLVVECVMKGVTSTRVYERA
Procedure: An evaluation of FABP4 was performed using a fluorescent displacement assay using 1,8-ANS, similar to FABP3. Used in the evaluation of FABP4 was an assay kit (FABP4 Inhibitor/Ligand Screening Assay Kit) available from Cayman Chemical Company. Ethanol was used as a solvent for dissolving the compound, and an arachidonic acid which comes with the kit was used as a positive control. The measurement procedure was performed similarly to the aforementioned FABP3 assay.
(§1) Measurement was performed twice each, and the average was adopted as the result. The software, Origin, available from Light Stone was used for calculating IC50.

FABP3 = FABP3 (Homo sapiens (Human), UniProt P05413); assay: Evaluation of FABP3 ligand activity, fluorescent displacement assay using 1,8-ANS; type: binding; settings: 1,8-ANS displacement; average of two measurements
Chain of FABP3 (P05413 whole entry, species assumed): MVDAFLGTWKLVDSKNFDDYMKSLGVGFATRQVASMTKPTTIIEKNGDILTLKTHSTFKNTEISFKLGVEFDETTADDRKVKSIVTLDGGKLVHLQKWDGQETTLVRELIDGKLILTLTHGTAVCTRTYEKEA
Procedure: Adopted for evaluation in the evaluation of FABP3 ligand activity was a fluorescent displacement assay using 1,8-ANS (1-anilino-8-naphthalenesulfonic acid). Fluorescent materials such as 1,8-ANS are characterized by an increase in the fluorescent intensity under a hydrophobic environment. […] Ethanol was used as the dilution solvent of the compounds.
To each well was added as a detection reagent, a 1,8-ANS (ALDRICH) solution (10 μM, ethanol/sodium phosphate buffer solution=1:4 v/v, 25 μL), and ethanol solutions of compounds diluted to different concentrations were added in an amount of 10 μL each (the final ethanol concentration was 15%). The plate was shaken for 10 sec. in the plate reader and incubated for 10 min. at room temperature. […] Used for measurement was ARVO™ X One by PerkinElmer Japan.
as §1

[5] = tested on: MPTP Parkinson's disease model C57BL6 N mice; assay: Test Example 10: cognitive function in MPTP Parkinson's disease model mice; type: in vivo, mouse; settings: p.o. once every day (Example 1: 0.1, 0.5 or 1.0 mg/kg; others 1.0 mg/kg), four weeks after MPTP, FIG. 10
Procedure: MPTP (25 mg/kg, i.p.) was administered once every day for 5 consecutive days to a 10 week old male C57BL6 N mice to prepare a Parkinson's disease model mice. […] Four weeks after administration of MPTP, at which time cognitive dysfunction was observed, the cognitive function was evaluated by a novel object recognition test and a passive avoidance test. The passive avoidance test was performed by putting a mouse in a light room and applying electric shock (0.3 mA, 2 second) on the mouse when it entered the dark room in the train run. Twenty four hours later, the mouse was put in the light room again, and the time until the mouse entered the dark room was measured.

[6] = tested on: MPTP Parkinson's disease model C57BL6 N mice; assay: Test Example 7: cognitive function in MPTP Parkinson's disease model animal; type: in vivo, mouse; settings: 1.0 mg/kg p.o. daily 2 weeks, four weeks after MPTP, FIG. 7
Procedure: 1-Methyl-4-phenyl-1,2,3,6-tetrahydropyridine (MPTP, 25 mg/kg, i.p., purchased from Sigma-Aldrich (St Louis, Mo.)), which is a dopamine neurotoxin, was administered once every day for 5 consecutive days to a 10 week old male C57BL6 N mice, to prepare a Parkinson's disease model animal. From 24 hours after the final administration of MPTP, the solvent or FABP3 ligand (compound of Example 3, 1.0 mg/kg, p.o., each group n=7) was administered once every day for 2 weeks. Four weeks after administration of MPTP, at which time cognitive dysfunction was observed, the cognitive function was evaluated by a novel object recognition test.

Chain of GST-FABP4 (P04117 whole entry): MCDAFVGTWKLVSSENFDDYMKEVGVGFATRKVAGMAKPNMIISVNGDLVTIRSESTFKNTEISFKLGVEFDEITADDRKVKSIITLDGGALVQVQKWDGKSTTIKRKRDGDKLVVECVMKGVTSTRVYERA

With `O=C(O)CCCOc1ccccc1-c1cc(-c2ccccc2)n(-c2ccc(Cl)c(Cl)c2)n1` [Example 3, 4-(2-(1-(3,4-Dichlorophenyl)-5-phenyl-1H-pyrazol-3-yl)phenoxy)butanoic acid] the Kd (GST-FABP4) was 6.67 ± 1.4 µM, the “number of TH and α-synuclein double positive cells” value [1] was “tendency towards improvement” and the “beam walking test, number of footslips” value [2] was “improved significantly”. For the same compound, the “rotarod test, Latency” value [2] was “improved significantly”, the “beam walking test, number of footslips” value [3] was “entirely recovered” and the “rotarod test, Latency” value [3] was “recovered fully”. The Kd (GST-FABP3) was 2.22 ± 0.104 µM, the “number of TH positive cells (dopamine neurons)” value [4] was “improved significantly” and the IC50 (FABP4) was 1.66 µM. For the same compound, the IC50 (FABP3) was 0.28 µM, the “cognitive function by novel object recognition test and passive avoidance test” value [5] was “significant effects” and the “novel object recognition test, cognitive dysfunction” value [6] was “such dysfunction was not observed”.
